# Patent US20260294947A1, “FUCOSYLATED MAMMALIAN MILK OLIGOSACCHARIDE FOR USE IN THE PREVENTION OR TREATMENT OF SHIPPING FEVER” (Inbiose N.V., priority 2023, published 2026)
# Assays:
# [1] = Mortality and adverse effects in calves (health and safety observation); format: in vivo, Holstein Friesian calves (bovine)
# Description: (§1) Holstein Friesian calves (2-3 week-old, 95% male) were transported from different farms to the experimental facility of Denkavit (Voorthuizen, The Netherlands) where the animals were reared. The experiment was performed in two trial rounds.
# (§2) The calves were randomly and gender-equally divided in two groups based on experimental calf milk replacer: group A (placebo-standard calf milk replacer (CMR) powder of the farm) and group B (standard CMR powder supplemented with 0.005% drywt. 2′-fucosyllactose (2′FL, see Example 1). The calf milk replacer was administered as a liquid to the calves (water was added to the CMR powder to obtain 150 gram CMR powder per liter liquid CMR). Each group involved […], assigned into 12 rows. Each row contained 4 pens, where six calves were living in one pen.
# (§3) 2′-fucosyllactose was supplied to calves via CMR (major components are presented in Table 1) during the whole trial, lasting 6 months. The Start CMR was given from arrival till week 6, which then switched to the Gold Alfa CMR up to day 136. The remaining time calves were fed with the Omega CMR. Solid feed (concentrates) was introduced gradually from arrival, starting with the Avance Alfa up till day 126, then replaced by the Avance Omega till the end of the experiment. Feed was provided ad libitum to calves twice a day (morning and evening) and were recorded daily based on rows (concentrates, straw, corn silage) or groups (CMR) consumption.
# (§4) The calves were randomly and gender-equally divided in two groups based on experimental calf milk replacer (CMR): group A (placebo-standard CMR powder of the farm), group B (standard CMR powder supplemented with 0.005% drywt. 2′FL). The calf milk replacer was administered as a liquid to the calves (water was added to the CMR powder to obtain 150 gram CMR powder per liter liquid CMR). Each group involved 100 calves, assigned into four rows (25 calves per row) of two compartment blocks. Each row contained five pens, where four to six calves were living in one pen.
# (§5) Starting from the day of arrival, calves received standard calf milk replacer (CMR) during a period of 9 weeks. Group A only received the CMR, while the CMR supplied to groups B was supplemented with 0.005% drywt. 2′FL. Calf starter (concentrates) and straw were introduced gradually from day 6 till the end of the experiment (12 weeks) while calves had access to corn silage at weeks 11 and 12. Feed were provided ad libitum to calves twice a day (morning and evening) and were recorded daily based on rows (concentrates, straw, corn silage) or groups (CMR) consumption.
# (§6) Calves were followed up by the farm staffs since arrival till the end of the trial. Fecal consistency in scale 1-4 (Larson et al., 1977, J. Dairy Science, 60 (6): p. 989-991) was recorded daily for the first ten days since arrival. Number of mortalities and signs of adverse effects were registered daily. […] Disease incidences and medicinal usage based on individual treatments were recorded to compare between treatment groups. Live weight of the animals was monitored at arrival (d1), two weeks (W2), six weeks (W6), ten weeks (W10) and 12 weeks (W12) and 17 weeks (W17) since arrival. […]
# (§7) Odds ratios and risk ratios of the pneumonia and diarrhea incidence were evaluated with the epitools R package using the Wald test (cran.r-project.org/web/packages/epitools/epitools.pdf). […]
# diarrhea = assay: Diarrhea incidence in calves fed 2′FL-supplemented calf milk replacer versus placebo (standard CMR); format: in vivo, Holstein Friesian calves (bovine); details: for Diarrhea cases: group B, 0.005% drywt. 2′FL in CMR
# Description: as §1, §2, §3
# The calves were randomly and gender-equally divided in two groups based on experimental calf milk replacer (CMR): group A (placebo-standard CMR powder of the farm), group B (standard CMR powder supplemented with 0.005% drywt. 2′FL). […]
# Starting from the day of arrival, calves received standard calf milk replacer (CMR) during a period of 9 weeks. […] Feed were provided ad libitum to calves twice a day (morning and evening) and were recorded daily based on rows (concentrates, straw, corn silage) or groups (CMR) consumption.
# as §6, with “arrival.” for “arrival. Number of mortalities and signs of adverse effects were registered daily.”
# as §7
# acute pneumonia = assay: Acute pneumonia incidence in calves fed 2′FL-supplemented calf milk replacer versus placebo (standard CMR); format: in vivo, Holstein Friesian calves (bovine)
# Description: as §1, §2, §3, §4, §5
# Calves were followed up by the farm staffs since arrival till the end of the trial. Fecal consistency in scale 1-4 (Larson et al., 1977, J. Dairy Science, 60 (6): p. 989-991) was recorded daily for the first ten days since arrival. Number of mortalities and signs of adverse effects were registered daily. The animals were treated prophylactically or metaphylactically (herd treatment) with 1 g oxytetracycline 100% (at day 4), 0.5 g Doxylin 50% WSP and 0.8 g bromhexine 2% (at day 13), and 3.1 ml Tilmicosol 250 mg/ml (at day 24) to prevent and/or treat acute lung inflammation. Individual treatments were followed by remark of the farm staffs and diagnostic of farm veterinary practitioners. Disease incidences and medicinal usage based on individual treatments were recorded to compare between treatment groups. Live weight of the animals was monitored at arrival (d1), two weeks (W2), six weeks (W6), ten weeks (W10) and 12 weeks (W12) and 17 weeks (W17) since arrival. Feed conversion ratio (FCR) of each period was computed based on the input of daily weight gain and daily feed intake. […]
# jejunum = assay: Jejunal RNAseq (transcriptomics), Gene Ontology enrichment analysis of differentially expressed genes, 2′FL versus placebo; format: in vivo, Bos taurus (calves); details: day 71 (W11)
# Description: One healthy and middle weight calf of one pen per group was picked for euthanization in the slaughterhouse at day 71 (W11) (8 calves in total, 4 per group). A 20 cm segment of jejunum without Peyer's patch was excised and washed three times with physiological serum using a 30 ml syringe. A small segment (2-3 mm) was further excised and stored in 2 ml RNA protect tissue reagent (Qiagen) containing RNA preservation buffer for transportation at room temperature before long-term storage at −80° C.
# Jejunal specimens stored in RNA protect tissue reagent were excised further to transfer 50 mg tissue into 2 ml tubes. The tissues were disrupted and homogenized using one stainless steel bead 5 mm in 900 μl QIAzol lysis reagent (QIAgen) in combination with a FASTPREP® 24 device. The homogenates were further manipulated according to the guidance of the manufacturer of the RNeasy plus universal tissue mini kit (QIAgen). The total purified RNA were eluted in 40 μl and quickly checked for the concentration and quality using Nanodrop (Implen NANOPHOTOMETER®) before storage at −80° C.
# Total RNA was submitted to Azenta (Genewiz, Germany) to perform RNA sequencing. The total RNA was checked again for quality and concentration using Qubit and fragment analyzer before the mRNA were selected for polyA library preparation and sequenced using the ILLUMINA® Novaseq™ 2×150 bp technology platform guaranteed 20 million paired-end reads per samples (40 million reads).
# RNA sequencing reads were quality-checked with fastqc (bioinformatics.babraham.ac.uk/projects/fastqc/) and trimmed with Trimmomatic (Bolger et al., 2014, Bioinformatics 30 (15): p. 2114-2120). Reads were aligned to the cow reference (Bos_taurus_UMD_3.1.1) using the genome alignment method in STAR (Dobin et al., 2013, Bioinformatics 29 (1): p. 15-21); Gene expression was quantified by featureCounts (Liao et al., 2014, Bioinformatics 30 (7): p. 923-930) and differential expression analysis was performed using DEseq2 (Love et al., 2014, Genome Biol. 15 (2): 550). Enrichment analysis of differential expressed was done in clusterProfiler (Wu et al., 2021, Innovation 2 (3): 100141) based on Gene Ontology.
substance,measurement,setting,value
2′-fucosyllactose [2′FL],Adverse effects,"[1]; registered by the farm staffs, target animals (calves), both rounds",no adverse effects
same,Mortality,"[1]; round 1, 6 months, group B (2′FL), placebo 4.14%, 262800 min",3.1%
same,Calves dead,"[1]; round 1, 6 months, group B (2′FL), placebo 12 (4.14%)",9 calves
same,"Mortality, difference between groups","[1]; round 1, 6 months, Kaplan-Meier test",no significant difference in mortality between the experimental groups
same,"Mortality, difference between groups","[1]; round 2, 12 weeks, 7/400 calves died in all groups",no significant difference in mortality between the different groups
same,"Relative risk of getting diarrhea, group B versus placebo",diarrhea; round 1 (veal calf),0.71
same,Diarrhea cases,"diarrhea; round 1 (veal calf), out of 290 calves, placebo 51 cases",36 cases
same,Odds ratio associated with diarrhea,"diarrhea; round 1 (veal calf), standard CMR (placebo) versus 2′FL supplemented CMR",1.51
same,Diarrhea cases,"diarrhea; round 2 (rearing calf), 100 calves per group, placebo 1 case",0 cases
same,"Relative risk of getting acute pneumonia, group B versus placebo","acute pneumonia; round 1 (veal calf), 0.005% drywt. 2′FL in CMR",0.86
same,Acute pneumonia cases,"acute pneumonia; round 1 (veal calf), group B, 0.005% drywt. 2′FL in CMR, 6 months, out of 290 calves, placebo 111 cases",96 cases
same,"Relative risk of getting acute pneumonia, group B versus placebo","acute pneumonia; round 2 (rearing calf), 0.005% drywt. 2′FL in CMR",0.63
same,Acute pneumonia cases,"acute pneumonia; round 2 (rearing calf), group B, 0.005% drywt. 2′FL in CMR for 9 weeks, 12-week trial, 100 calves per group, placebo 27 cases",17 cases
same,"Acute pneumonia cases, share of calves","acute pneumonia; round 2 (rearing calf), group B, placebo 27%",17%
same,Common odds ratio of acute pneumonia,"acute pneumonia; rounds 1 and 2 integrated, standard CMR (placebo) versus 2′FL supplemented CMR, Mantel-Haenszel",1.35
same,Immune responses versus placebo (enrichment analysis),jejunum; 4 calves per group,"enhanced immune responses in several ways (T cell activation, cell differentiation, cell-cell adhesion, adaptive immune response)"
same,"p. adjust, up-regulated gene ontology process ADAPTIVE_IMMUNE_RESPONSE",jejunum; group B versus placebo,4.15E−06
same,"p. adjust, up-regulated gene ontology process ADAPTIVE_IMMUNE_RESPONSE_BASED_ON_SOMATIC_RECOMBINATION_OF_IMMUNE_RECEPTORS_BUILT_FROM_IMMUNOGLOBULIN_SUPERFAMILY_DOMAINS",jejunum; group B versus placebo,0.00573
same,"p. adjust, up-regulated gene ontology process EXTERNAL_SIDE_OF_PLASMA_MEMBRANE",jejunum; group B versus placebo,0.000673
same,"p. adjust, up-regulated gene ontology process HETEROTYPIC_CELL_CELL_ADHESION",jejunum; group B versus placebo,0.003478
same,"p. adjust, up-regulated gene ontology process LEUKOCYTE_DIFFERENTIATION",jejunum; group B versus placebo,0.003462
same,"p. adjust, up-regulated gene ontology process LYMPHOCYTE_MEDIATED_IMMUNITY",jejunum; group B versus placebo,0.003478
same,"p. adjust, up-regulated gene ontology process MONONUCLEAR_CELL_DIFFERENTIATION",jejunum; group B versus placebo,0.000274
same,"p. adjust, up-regulated gene ontology process NEGATIVE_REGULATION_OF_ADAPTIVE_IMMUNE_RESPONSE",jejunum; group B versus placebo,0.002368
same,"p. adjust, up-regulated gene ontology process NEGATIVE_REGULATION_OF_IMMUNE_SYSTEM_PROCESS",jejunum; group B versus placebo,0.001169
same,"p. adjust, up-regulated gene ontology process NEGATIVE_REGULATION_OF_LEUKOCYTE_MEDIATED_IMMUNITY",jejunum; group B versus placebo,0.002368
same,"p. adjust, up-regulated gene ontology process NEGATIVE_REGULATION_OF_LYMPHOCYTE_MEDIATED_IMMUNITY",jejunum; group B versus placebo,0.00552
same,"p. adjust, up-regulated gene ontology process POSITIVE_THYMIC_T_CELL_SELECTION",jejunum; group B versus placebo,0.00573
same,"p. adjust, up-regulated gene ontology process POSITIVE_T_CELL_SELECTION",jejunum; group B versus placebo,0.003206
same,"p. adjust, up-regulated gene ontology process REGULATION_OF_ADAPTIVE_IMMUNE_RESPONSE",jejunum; group B versus placebo,0.003206
same,"p. adjust, up-regulated gene ontology process REGULATION_OF_LEUKOCYTE_MEDIATED_IMMUNITY",jejunum; group B versus placebo,0.003478
same,"p. adjust, up-regulated gene ontology process REGULATION_OF_T_CELL_ACTIVATION",jejunum; group B versus placebo,0.003668
same,"p. adjust, up-regulated gene ontology process T_CELL_ACTIVATION",jejunum; group B versus placebo,9.06E−06
same,"p. adjust, up-regulated gene ontology process T_CELL_DIFFERENTIATION",jejunum; group B versus placebo,0.000662
same,"p. adjust, up-regulated gene ontology process T_CELL_PROLIFERATION",jejunum; group B versus placebo,0.002368
same,"p. adjust, up-regulated gene ontology process T_CELL_RECEPTOR_COMPLEX",jejunum; group B versus placebo,0.000274
